According to ChEMBL document CHEMBL1139706, “Novel thienopyrrole glycogen phosphorylase inhibitors: synthesis, in vitro SAR and crystallographic studies” (Bioorg Med Chem Lett, 2006):
pIC50: −log10 of the molar value.

Each molecule was assayed against T1, Glycogen phosphorylase, liver form (Homo sapiens, UniProt P06737) (assay: Inhibition of recombinant human liver GPa by multienzyme coupled assay).
T1 sequence (P06737 whole entry): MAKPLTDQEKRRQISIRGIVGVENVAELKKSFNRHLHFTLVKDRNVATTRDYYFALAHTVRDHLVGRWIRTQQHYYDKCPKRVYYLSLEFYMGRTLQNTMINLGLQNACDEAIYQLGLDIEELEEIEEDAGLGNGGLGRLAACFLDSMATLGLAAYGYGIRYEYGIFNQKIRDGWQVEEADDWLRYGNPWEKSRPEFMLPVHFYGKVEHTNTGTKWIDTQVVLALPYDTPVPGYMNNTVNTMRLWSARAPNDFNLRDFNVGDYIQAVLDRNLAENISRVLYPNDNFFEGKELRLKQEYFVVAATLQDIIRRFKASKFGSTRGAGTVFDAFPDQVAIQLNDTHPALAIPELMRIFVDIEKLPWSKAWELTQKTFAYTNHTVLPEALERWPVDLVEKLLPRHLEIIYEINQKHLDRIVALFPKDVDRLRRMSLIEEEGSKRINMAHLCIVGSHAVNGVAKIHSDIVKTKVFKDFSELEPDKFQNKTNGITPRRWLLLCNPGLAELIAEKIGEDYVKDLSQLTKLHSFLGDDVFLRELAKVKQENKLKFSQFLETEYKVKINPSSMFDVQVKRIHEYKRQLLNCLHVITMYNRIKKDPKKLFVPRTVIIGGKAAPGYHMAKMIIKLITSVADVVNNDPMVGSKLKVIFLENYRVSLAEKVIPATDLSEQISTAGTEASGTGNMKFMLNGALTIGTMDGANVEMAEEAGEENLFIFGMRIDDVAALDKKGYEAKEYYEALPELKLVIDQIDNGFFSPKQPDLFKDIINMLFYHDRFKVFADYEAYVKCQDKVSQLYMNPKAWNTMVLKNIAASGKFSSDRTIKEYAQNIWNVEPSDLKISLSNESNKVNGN

How did the pIC50 turn out when O=C(NC1Cc2ccccc2C1)c1cc2cc(Cl)sc2[nH]1 was run?
The pIC50 was 6.09.

CN(C)C(=O)[C@H](Cc1ccccc1)NC(=O)c1cc2ccsc2[nH]1 was tested. Which pIC50 did it give?
The pIC50 was 5.64.

How did the pIC50 turn out when CN(C)C(=O)[C@H](Cc1ccccc1)NC(=O)c1cc2sc(Cl)c(Cl)c2[nH]1 was run?
The pIC50 was 8.30.

CN(C)C(=O)[C@H](Cc1ccccc1)NC(=O)c1cc2cc(Cl)ccc2[nH]1 was tested. Which pIC50 did it give?
Its pIC50 is 7.29.

With O=C(NC1Cc2ccccc2NC1=O)c1cc2cc(Cl)ccc2[nH]1 (configuration not stated) as the molecule, how does the pIC50 read?
The pIC50 was 7.07.

CNC(=O)[C@H](Cc1ccccc1)NC(=O)c1cc2sc(Cl)cc2[nH]1 was tested. Which pIC50 did it give?
Its pIC50 is 6.24.

With CNC(=O)[C@H](Cc1ccccc1)NC(=O)c1cc2scc(Cl)c2[nH]1 as the molecule, how does the pIC50 read?
The pIC50 was 6.41.

How did the pIC50 turn out when O=C(NC1Cc2ccccc2C1)c1cc2sc(Cl)c(Cl)c2[nH]1 was run?
The pIC50 was 6.71.

With CN(C)C(=O)[C@H](Cc1ccccc1)NC(=O)c1cc2cc(Cl)sc2[nH]1 as the molecule, how does the pIC50 read?
Its pIC50 is 7.77.

CN(C)C(=O)[C@H](Cc1ccccc1)NC(=O)c1cc2sc(Br)c(Br)c2n1C was tested. Which pIC50 did it give?
Its pIC50 is less than 5.00.

CN(C)C(=O)[C@H](Cc1ccccc1)NC(=O)c1cc2cc(Br)sc2[nH]1 was tested. Which pIC50 did it give?
The pIC50 was 7.51.

CN(C)C(=O)[C@H](Cc1ccccc1)NC(=O)c1cc2sc(Br)c(Br)c2[nH]1 was tested. Which pIC50 did it give?
Its pIC50 is 7.64.

CN(C)C(=O)[C@H](Cc1ccccc1)N(C)C(=O)c1cc2sc(Br)c(Br)c2[nH]1 was tested. Which pIC50 did it give?
Its pIC50 is less than 5.00.

How did the pIC50 turn out when O=C(N[C@@H]1Cc2ccc(Cl)cc2[C@H]1O)c1cc2sc(Cl)c(Cl)c2[nH]1 was run?
Its pIC50 is 7.05.

With O=C(N[C@@H]1Cc2ccc(F)cc2[C@H]1O)c1cc2sc(Cl)c(Cl)c2[nH]1 as the molecule, how does the pIC50 read?
The pIC50 was 7.31.

How did the pIC50 turn out when O=C(N[C@@H]1Cc2ccccc2[C@H]1O)c1cc2sc(Cl)c(Cl)c2[nH]1 was run?
The pIC50 was 8.05.

Each molecule was assayed against T2, Glycogen phosphorylase, liver form (Homo sapiens) (UniProt P06737) (assay: Inhibition of recombinant human liver GPa by multienzyme coupled assay at 10 uM).
T2 sequence (whole entry): T1 sequence (P06737 whole entry)

With CN(C)C(=O)[C@H](Cc1ccccc1)NC(=O)c1cc2c(Br)c(Br)sc2[nH]1 as the molecule, how does the inhibition read?
Its inhibition is 20%.

The molecules below were run against T2, Glycogen phosphorylase, liver form (Homo sapiens) (assay: Inhibition of recombinant human liver GPa by multienzyme coupled assay at 100 uM).

For CN(C)C(=O)[C@H](Cc1ccccc1)NC(=O)c1cc2sccc2[nH]1, which inhibition is on record?
The inhibition was 35%.

Each molecule was assayed on Hepatocyte (assay: Inhibition of glucose output in glucagon challenged rat hepatocytes).
Type: functional, cell-based

How did the pIC50 turn out when CN(C)C(=O)[C@H](Cc1ccccc1)NC(=O)c1cc2sc(Cl)c(Cl)c2[nH]1 was run?
Its pIC50 is 6.00.

With CN(C)C(=O)[C@H](Cc1ccccc1)NC(=O)c1cc2cc(Cl)ccc2[nH]1 as the molecule, how does the pIC50 read?
The pIC50 was 5.59.

How did the pIC50 turn out when O=C(NC1Cc2ccccc2NC1=O)c1cc2cc(Cl)ccc2[nH]1 (configuration not stated) was run?
The pIC50 was 5.15.

With CN(C)C(=O)[C@H](Cc1ccccc1)NC(=O)c1cc2cc(Cl)sc2[nH]1 as the molecule, how does the pIC50 read?
Its pIC50 is 5.85.

With CN(C)C(=O)[C@H](Cc1ccccc1)NC(=O)c1cc2sc(Br)c(Br)c2n1C as the molecule, how does the pIC50 read?
Its pIC50 is 5.96.

How did the pIC50 turn out when CN(C)C(=O)[C@H](Cc1ccccc1)NC(=O)c1cc2cc(Br)sc2[nH]1 was run?
The pIC50 was 5.80.

With O=C(N[C@@H]1Cc2ccc(F)cc2[C@H]1O)c1cc2sc(Cl)c(Cl)c2[nH]1 as the molecule, how does the pIC50 read?
The pIC50 was 5.89.

With O=C(N[C@@H]1Cc2ccccc2[C@H]1O)c1cc2cc(Cl)sc2[nH]1 as the molecule, how does the pIC50 read?
Its pIC50 is 5.44.

How did the pIC50 turn out when O=C(N[C@@H]1Cc2ccccc2[C@H]1O)c1cc2sc(Cl)c(Cl)c2[nH]1 was run?
The pIC50 was 5.82.
